Source: ChEMBL document CHEMBL1143305, “SAR and biological evaluation of analogues of a small molecule histone deacetylase inhibitor N-(2-aminophenyl)-4-((4-(pyridin-3-yl)pyrimidin-2-ylamino)methyl)benzamide (MGCD0103)” (Bioorg Med Chem Lett, 2009)
Calls of active or inactive are those of the source. The rule behind the calls is not given here.

Tests used:
[1] = target: Histone deacetylase 1 (Homo sapiens, UniProt Q13547); assay: Inhibition of human recombinant HDAC1
[2] = system: HCT-116; assay: cells; details: Homo sapiens
Description: (§1) Antiproliferative activity against human HCT116 cells by MTT assay

[3] = system: T-24; assay: Induction of histone H4 hyperacetylation in human T24 cells after 16 hrs by immunoblotting; assay type: functional, cell-based; details: for EC50: T-24, 16 h
[4] = system: HCT-116; assay: Induction of p21WAF1/CIP1 expression in human HCT116 cells assessed as […] after 16 hrs by luciferase assay; assay type: functional, cell-based; details: for EC50: HCT-116, 16 h
[5] = system: HMEC; assay: Selectivity ratio of IC50 for HMEC to IC50 for human HCT116 cells
[6] = system: HMEC; assay: Antiproliferative activity against HMEC by MTT assay; assay type: cell-based; details: Homo sapiens
[7] = system: HCT-116; details: Homo sapiens
Description: as §1

[8] = system: HCT-116; assay: Induction of apoptosis in human HCT116 cells; assay type: functional, cell-based

Sequence of Histone deacetylase 1 (Q13547 whole entry): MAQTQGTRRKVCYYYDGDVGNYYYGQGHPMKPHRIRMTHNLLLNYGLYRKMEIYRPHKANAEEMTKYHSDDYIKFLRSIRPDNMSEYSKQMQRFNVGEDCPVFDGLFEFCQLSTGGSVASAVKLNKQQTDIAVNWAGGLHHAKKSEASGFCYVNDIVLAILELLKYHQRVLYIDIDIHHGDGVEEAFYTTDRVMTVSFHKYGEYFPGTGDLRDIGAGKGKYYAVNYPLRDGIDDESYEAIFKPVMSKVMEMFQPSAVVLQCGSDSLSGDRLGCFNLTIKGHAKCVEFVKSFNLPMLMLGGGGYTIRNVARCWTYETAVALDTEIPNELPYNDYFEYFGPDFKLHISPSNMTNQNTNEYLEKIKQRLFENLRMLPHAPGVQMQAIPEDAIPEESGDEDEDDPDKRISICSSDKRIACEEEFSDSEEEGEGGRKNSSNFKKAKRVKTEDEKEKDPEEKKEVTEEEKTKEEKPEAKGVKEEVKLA

| SMILES | IC50 [1] | IC50 [2] | EC50 [3] | Activity [4] | Ratio IC50 [5] | IC50 [6] | Activity [7] | EC50 [4] | Activity [8] | Activity [3] |
| --- | --- | --- | --- | --- | --- | --- | --- | --- | --- | --- |
| Nc1ccccc1NC(=O)c1ccc(Nc2nccc(-c3cccnc3)n2)cc1 | 2000 nM | 2000 nM |  |  |  |  |  |  |  |  |
| Nc1ccccc1NC(=O)c1ccc(CNc2nccc(-c3cc(CO)no3)n2)cc1 | 210 nM | 800 nM | 1000 nM | inactive | >30 | > 50000 nM |  |  |  |  |
| Nc1ccccc1NC(=O)c1ccc(CNc2nccc(-c3nccs3)n2)cc1 | 140 nM |  | < 1000 nM |  | >30 | 14000 nM | inactive | 500 nM |  |  |
| Nc1ccccc1C(=O)Nc1ccc(CNc2nccc(-c3cccnc3)n2)cc1 | > 20000 nM | 25000 nM |  |  |  |  |  |  |  |  |
| Nc1ccccc1NC(=O)c1ccc(CNc2cncc(-c3cccnc3)n2)cc1 | 110 nM | 300 nM | 1000 nM |  | >15 | 16000 nM |  | 400 nM | Active |  |
| Nc1ccccc1NC(=O)c1ccc(CNc2nccc(-c3ccc(N4CCOCC4)nc3)n2)cc1 | 50 nM | < 50 nM | < 1000 nM |  | >20 | 5000 nM |  | 400 nM | Active |  |
| CN(C)C(=O)c1ccc(-c2ccnc(NCc3ccc(C(=O)Nc4ccccc4N)cc3)n2)cn1 | 420 nM | 300 nM | 2000 nM |  | >20 | > 50000 nM |  | 900 nM | Active |  |
| CN(C)CCOc1ccc(-c2ccnc(NCc3ccc(C(=O)Nc4ccccc4N)cc3)n2)cc1 | 120 nM | 90 nM | < 1000 nM |  | >30 | 10000 nM |  | 100 nM |  |  |
| Nc1ccccc1NC(=O)c1ccc(CNc2nccc(-c3ccc(OCCN4CCOCC4)cc3)n2)cc1 | 80 nM | 100 nM | < 1000 nM |  | >30 | 8000 nM |  | 100 nM |  |  |
| CN1CCN(c2ccc(-c3ccnc(NCc4ccc(C(=O)Nc5ccccc5N)cc4)n3)cn2)CC1 | 80 nM | 200 nM |  |  | >20 | 5000 nM |  | 200 nM | Active | inactive |
| Nc1ccccc1NC(=O)c1ccc(CNc2cc(-c3cccnc3)ncn2)cc1 | 70 nM | < 50 nM | < 1000 nM |  | >15 | 42000 nM |  | 500 nM | Active |  |
| CC(C)(O)c1ccc(-c2ccnc(NCc3ccc(C(=O)Nc4ccccc4N)cc3)n2)cn1 | 230 nM | 100 nM | 2000 nM |  | >20 | 38000 nM |  | 600 nM | Active |  |
| CN(C)CCOc1cccc(-c2ccnc(NCc3ccc(C(=O)Nc4ccccc4N)cc3)n2)c1 | 130 nM | 300 nM | < 1000 nM | inactive | >30 | 11000 nM |  |  |  |  |
| CSc1nc(NCc2ccc(C(=O)Nc3ccccc3N)cc2)cc(-c2cccnc2)n1 | 250 nM | 100 nM | 1000 nM |  |  | 13000 nM |  | 600 nM |  |  |
| Nc1ccccc1NC(=O)c1ccc(CNc2nccc(-c3cnccn3)n2)cc1 | 190 nM | 300 nM | 1000 nM |  | >30 | 23000 nM |  | 600 nM |  |  |
| N#Cc1ccc(-c2ccnc(NCc3ccc(C(=O)Nc4ccccc4N)cc3)n2)cn1 | 160 nM | 400 nM | 1000 nM |  | >20 | > 50000 nM |  | 700 nM | Active |  |

| SMILES | IC50 [1] | IC50 [2] | EC50 [3] | Activity [4] | Ratio IC50 [5] | IC50 [6] | Activity [7] | EC50 [4] | Activity [8] | Activity [3] |
| --- | --- | --- | --- | --- | --- | --- | --- | --- | --- | --- |
| Nc1ccccc1NC(=O)c1ccc(CNc2ccnc(-c3cccnc3)n2)cc1 | 200 nM | 400 nM | < 1000 nM |  |  | 11000 nM |  | 600 nM | Active |  |
| Nc1ccccc1NC(=O)c1ccc(CNc2nccc(-c3ccc(CN4CCOCC4)cc3)n2)cc1 | 90 nM | 100 nM | 1000 nM |  | >30 | 27000 nM |  | 500 nM |  |  |
| Nc1ccccc1NC(=O)c1ccc(/C=C/CNc2nccc(-c3cccnc3)n2)cc1 | 130 nM |  |  |  |  |  |  |  |  |  |
| Nc1ccccc1NC(=O)c1ccc(CNc2cccc(-c3cccnc3)n2)cc1 | 180 nM | 600 nM | 1000 nM |  |  | > 50000 nM |  | 600 nM | Active |  |
| Nc1cc(-c2cccnc2)nc(NCc2ccc(C(=O)Nc3ccccc3N)cc2)n1 | 170 nM | 200 nM | 1000 nM |  |  | 14000 nM |  | 200 nM |  |  |
| Nc1ccccc1NC(=O)c1ccc(CNc2nccc(-c3ccc(C(=O)N4CCOCC4)nc3)n2)cc1 | 250 nM | 1000 nM |  |  | >20 | 37000 nM |  | 2000 nM | Active | inactive |
| Nc1ccccc1NC(=O)c1ccc(CNc2nccc(-c3ccsc3)n2)cc1 | 70 nM | 70 nM | 3000 nM |  | >30 | 7000 nM |  | 300 nM |  |  |
| O=C(Nc1ccccc1)c1ccc(CNc2nccc(-c3cccnc3)n2)cc1 | > 25000 nM | > 50000 nM |  |  |  |  |  |  |  |  |
| Nc1ccccc1NC(=O)c1cccc(CNc2nccc(-c3cccnc3)n2)c1 | > 20000 nM | 43000 nM |  |  |  |  |  |  |  |  |
| Nc1ccccc1NC(=O)/C=C/c1ccc(CNc2nccc(-c3cccnc3)n2)cc1 | 1200 nM | 2000 nM |  |  |  |  |  |  |  |  |
| Nc1ccccc1NC(=O)c1ccc(CNc2nccc(-c3cccc(OCCN4CCOCC4)c3)n2)cc1 | 140 nM | 300 nM | 1000 nM |  | >30 | 41000 nM |  | 400 nM |  |  |
| CSc1ccc(-c2ccnc(NCc3ccc(C(=O)Nc4ccccc4N)cc3)n2)cn1 | 90 nM | 300 nM | 1000 nM |  | >20 | 6000 nM |  | 300 nM | Active |  |
| COCOC(C)(C)c1ccc(-c2ccnc(NCc3ccc(C(=O)Nc4ccccc4N)cc3)n2)cn1 | 250 nM | 100 nM | 1000 nM |  | >20 | 49000 nM |  | 1000 nM | Active |  |
| Nc1ccccc1NC(=O)c1ccc(CNc2cccc(-c3cccnc3)c2)cc1 | 90 nM | 300 nM | < 1000 nM |  | >15 | 5000 nM |  | 600 nM | Active |  |
| Nc1ccccc1NC(=O)c1ccc(CNc2nccc(-c3cccnc3)n2)cc1 [MOCETINOSTAT] |  | 300 nM | < 1000 nM |  |  | 21000 nM |  | 600 nM |  |  |
